Laboratory results: PMC2443290, “Genistein-Supplemented Diet Decreases Malaria Liver Infection in Mice and Constitutes a Potential Prophylactic Strategy” (PLoS ONE, 2008)
Where “and” joins values, the source holds several entries; their conditions need not be identical. Equal entries are not always repeated. Where two headings read alike, the source gives them in different places.

Legend:
P. berghei ANKA = assay: IC50 of infection of Huh7 cells by P. berghei ANKA, 18S rRNA qRT-PCR; type: cell-based; conditions: Plasmodium berghei
Description: (§1) This was performed in parallel to experiments where primaquine was tested in P. berghei infection of Huh7 cells. […] In addition to hepatoma cell lines primary mouse hepatocyte cultures were also used.
Black circles represent the mean of P. berghei ANKA18S rRNA expression in each condition (n = 3). […] Black circles represent the mean of P. berghei ANKA18S rRNA expression in each condition (n = 3).

[1] = test system: P. berghei ANKA sporozoites; assay: Mouse liver infection by P. berghei ANKA sporozoites, 18S rRNA qRT-PCR; type: in vivo
Description: (§2) C57BL/6 mice were bred and housed in the pathogen-free facilities of the Instituto de Gulbenkian de Ciência following all the EU regulations. The mice were then moved to the Instituto de Medicina Molecular Animal House were all the experiments were performed. All protocols were approved by the IMM Animal Care Committee. […] All mice were infected with 1×10^4 P. berghei ANKA sporozoites between the ages of 7 and 9 weeks old and liver infection was determined 40 hours later. In a parallel set of experiments, sporozoite infection was allowed to proceed to blood stage, to assess the impact of genistein in disease progression.
Forty hours post-sporozoite injection, livers were dissected and homogenized, and total RNA was extracted with an RNeasy Mini kit Quiagen, according to the manufacturer's recommendation. cDNA was obtained by reverse transcription using the First-strand cDNA synthesis kit (Roche) following the manufacturer's instructions. Quantitative RT-PCR reactions were performed for quantification of parasite load, using an ABI PRISM 7000, Applied Biosystem, and specific primers for Plasmodium berghei 18 S rRNA (5′-[…]-3′ and 5′-[…]-3′); or specific primers for P. yoelii 18 S rRNA (5′ –[…]-3′ and 5′-[…]-3′) were used for quantification of parasite load in the livers of mice 40 hours after sporozoite challenge. The amplification program consisted of incubation at 50°C for 2 min, 95°C for 10 min, followed by 50 cycles at 95°C for 15 s and 60°C for 1 min. For external standardization, plasmids encoding cDNA fragments cloned into TOPO TA, Invitrogen; corresponding to the amplified regions of the corresponding genes, were utilized. Copy numbers were calculated comparing the cycle numbers of the log-linear phase of the samples with the cycle numbers of the external standards.

P. yoelii = assay: IC50 of infection of Hepa1-6 cells by P. yoelii, 18S rRNA qRT-PCR; type: cell-based; conditions: Plasmodium yoelii, Hepa1-6, 24 h, P. yoelii infection of Hepa1-6 cells, read-out: IC50 (inhibition of infection)
[2] = test system: P. berghei ANKA sporozoites; assay: Pre-treatment of sporozoites with genistein, then infection of HepG2 cells; type: cell-based; conditions: sporozoites incubated with 100 μM for 30 min, washed, added to HepG2 cells; 24 hours
Description: (§3) Twenty four hours later the number of adherent cells was determined in 10 fields per coverslip, in triplicates. […] Control sporozoites were treated with equivalent volume of DMSO. After 30 min of incubation, sporozoites were washed and added to a monolayer of HepG2 cells seeded 24 hours before. Infection was assessed 24 hours later by determining the number of EEFs in each well.

[3] = test system: P. berghei ANKA expressing GFP sporozoites; assay: FACS analysis of Huh7 cells infected with PbGFP sporozoites (invasion and GFP intensity); type: cell-based
Description: FACS analysis at 2, 6, 30 and 44 hours after sporozoite addition was performed to determine the percentage of parasite-containing cells and parasite-GFP intensity within infected cells. Cell samples for FACS analysis were processed as previously described.

[4] = test system: P. berghei ANKA sporozoites; assay: In vitro infection of Hepa1-6 cells by P. berghei ANKA sporozoites, EEF counting; type: cell-based
Description: (§4) HepG2, and Hepa1-6 cells (human and mouse hepatoma cell lines, respectively) were maintained in DMEM 10% FCS, 1% Penicillin/Streptomycin and 1 mM glutamine. HepG2 or Hepa1-6 cells (2×10^5) were seeded in 24-well plates and allowed to adhere for 24 hours before infection. Huh7 cells (human hepatoma cell line) were maintained in RPMI 10% FCS, 1% Penicillin/Streptomycin and 1 mM glutamine. Huh7 cells (1,75×10^5) were seeded in 24-well plates and allowed to adhere for 24 hours before infection. Green fluorescent protein (GFP)-expressing P. berghei ANKA sporozoites were obtained from the dissection of infected Anopheles stephensi mosquito salivary glands.
(§5) P. berghei ANKA sporozoites (4×10^4/well) were added to monolayers of Hepa1-6 or HepG2 cells in 24-well plates. […] As control, an equivalent volume of DMSO (dimethylsulphoxide) was added. […] In all experiments, genistein was left in the cultures since the time of addition until the cells were fixed for quantification of infection. Infection was quantified by counting the total number of EEFs per coverslip using fluorescence microscopy (magnification 400×). […] The level of infection was measured as described above, 24 hours post-infection with sporozoites. Quantification of the area of 100 individual EEFs of each group was performed using ImageJ 1.36b software. The results are expressed as areas in μm^2.

P. yoelii sporozoites = assay: Mouse liver infection by P. yoelii sporozoites, 18S rRNA qRT-PCR; type: in vivo; conditions: single i.p. dose 200 mg/kg immediately prior to i.v. sporozoites; 40 hours
Description: as §2
Forty hours post-sporozoite injection, livers were dissected and homogenized, and total RNA was extracted with an RNeasy Mini kit Quiagen, according to the manufacturer's recommendation. cDNA was obtained by reverse transcription using the First-strand cDNA synthesis kit (Roche) following the manufacturer's instructions. Quantitative RT-PCR reactions were performed for quantification of parasite load, using an ABI PRISM 7000, Applied Biosystem, and specific primers for Plasmodium berghei 18 S rRNA (5′-[…]-3′ and 5′-[…]-3′); or specific primers for P. yoelii 18 S rRNA (5′ –[…]-3′ and 5′-[…]-3′) were used for quantification of parasite load in the livers of mice 40 hours after sporozoite challenge. […]

[5] = test system: phospho c-met (Tyr1234/1235); assay: Sporozoite-induced MET phosphorylation in Huh7 cells, Western blot; type: cell-based, human; conditions: four hours after sporozoites
Description: Four hours later total protein extracts were analysed with anti-phospho c-met (Tyr1234/1235) and MET antibodies.
Protein concentrations were determined using the Bio-Rad Laboratories DC protein assay kit and equal amounts of protein extracts ([…]) were separated by 8% SDS-PAGE gels, transferred onto nitrocellulose membranes and processed for Western blotting. The antibody directed to phospho-MET was used at 1∶1000 dilution (#3126; Cell signalling technology, Inc.) and β-chain of human MET was detected with the antibody MET (C-12) at 0,5 μg/mL dilution (#sc-10; Santa Cruz Biotechnology, Inc.). After incubation with the primary antibodies the enhanced chemiluminescence detection system ECL and Kodak films (Amersham Pharmacia Biotech, Piscataway, NJ) were used to visualize proteins on the nitrocellulose blots.

Huh7 cells = assay: Cell death of Huh7 cells, propidium iodide flow cytometry; type: cell-based, human; conditions: 24 hours
[6] = test system: P. berghei ANKA sporozoites; assay: In vitro infection of HepG2 cells by P. berghei ANKA sporozoites, EEF counting; type: cell-based; conditions: 25 μM
Description: as §4
P. berghei ANKA sporozoites (4×10^4/well) were added to monolayers of Hepa1-6 or HepG2 cells in 24-well plates. […] As control, an equivalent volume of DMSO (dimethylsulphoxide) was added. After 24 hours cells were fixed and stained with mouse anti-EEF (exo-erythrocytic forms of the parasite) antibody (2E6), followed by an anti-mouse secondary antibody. In all experiments, genistein was left in the cultures since the time of addition until the cells were fixed for quantification of infection. Infection was quantified by counting the total number of EEFs per coverslip using fluorescence microscopy (magnification 400×). […] The level of infection was measured as described above, 24 hours post-infection with sporozoites. Quantification of the area of 100 individual EEFs of each group was performed using ImageJ 1.36b software. The results are expressed as areas in μm^2.

HepG2 cells = assay: Viability of genistein-treated HepG2 cells, number of adherent cells; type: cell-based, human; conditions: 25 μM or 250 μM, 24 hours
Description: as §3

[7] = adults; daily ingestion of up to 54 mg; cited from earlier work
[8] = Genistein quantification in mouse sera, HPLC/MS; type: in vivo, C57BL/6 mice; conditions: for Genistein Concentration (μM): mouse sera, individual mice
Description: as §2, with “later.” for “later. In a parallel set of experiments, sporozoite infection was allowed to proceed to blood stage, to assess the impact of genistein in disease progression.”
“Free” analytes_aglycones, were extracted from the plasma/serum sample with ethyl acetate. The organic phase was evaporated and the dried residue was reconstituted in the mobile phase. For determination of the “total” isoflavones the glucuronide- and sulphate-conjugates were cleaved by enzymatic hydrolysis prior to ethyl acetate extraction. Chromatographic separation was performed by HPLC/MS on a C18-column in the gradient mode. Mass spectrometric detection (Agilent LC/MSD VL single-quadrupole-mass spectrometer equipped with elektrospray-ion source) was carried out with negative electrospray ionisation in the SIM-mode. Specifically, 200 μl of plasma were transferred into a 2 mL Eppendorf tube and 100 μl of enzyme solution were added. For enzymatic cleavage of the glucuronide- and sulphate-conjugates the samples were incubated at 38°C for 3 h, followed by addition of 30 μl internal standard solution. For extraction, 1200 μl ethyl acetate was added to the sample, shaken for 5 min at 300 rpm and centrifuged for 10 min at 10000 rpm and 10°C. 1000 μl of the supernatant was transferred into a 2 ml Eppendorf tube and evaporated at 30–35°C to dryness with a Vortex-Evaporator or Speed Vac. The dried residue was reconstituted in 150 μl mobile phase, briefly vortexed, and transferred into an HPLC vial. Forty to 75 μl were injected onto the analytical column and analyzed by HPLC-MS [35]. Data acquisition of extracted ion chromatograms, integration and quantification was performed with the Chemstation Software (Version 9.03 or higher) from Agilent Technologies.

P. berghei sporozoites = type: cell-based; conditions: data not shown
Description: as §1

[9] = test system: P. berghei ANKA-infected red blood cells (iRBC); assay: Blood stage infection of mice with P. berghei ANKA iRBC; type: in vivo; conditions: 1000 ppm genistein-supplemented diet; 1×10^6 iRBC i.p.
Description: Peripheral blood parasitemia and ECM symptoms were determined as described above.

[10] = test system: P. berghei ANKA sporozoites; assay: Blood parasitemia, survival and experimental cerebral malaria after sporozoite infection of mice; type: in vivo; conditions: 1000 ppm genistein-supplemented diet
Description: as §2
After sporozoite inoculation, peripheral blood parasitemias were followed daily by counting parasites in Giemsa stained thin blood films. To accurately quantify parasitemia in the first 96 hours post-infection, 50 to 100 microscope fields were examined in each blood film. At later time points, when the levels of parasitemia were higher, 20 microscope fields were counted per mouse. Mice were checked daily for development of ECM symptoms, which include ataxia, paralysis, deviation of the head and convulsions, coma and death.

[11] = test system: P. berghei ANKA sporozoites; assay: In vitro infection of Huh7 cells by P. berghei ANKA sporozoites, EEF counting; type: cell-based
Description: as §4, §5

## COc1cc(NC(C)CCCN)c2ncccc2c1 (stereo not shown) [primaquine]
P. berghei ANKA; Huh-7, P. berghei ANKA infection of Huh7 cells, 24 hours, read-out: IC50 (inhibition of infection)
  IC50: 13 µM

## O=c1c(-c2ccc(O)cc2)coc2cc(O)cc(O)c12 [genistein]
[1]; 1000 ppm genistein-supplemented diet
  relation of degree of liver infection to genistein levels in sera: inversely correlated
[1]; 1000 ppm genistein-supplemented diet, 40 hours after sporozoite injection
  liver parasite load: significantly reduced
[1]; single i.p. dose 200 mg/kg immediately prior to i.v. sporozoites, 40 hours
  parasite load in the liver: reduced infection
[1]; single oral dose 200 mg/kg 6 hours prior to sporozoite inoculation, 40 hours after infection
  reduction of liver infection: 64%
P. yoelii
  IC50: ~30 µM
[2]
  infection level (EEF number) with pre-treated sporozoites: no significant difference
[3]; 6, 30 and 44 hours after sporozoite addition
  increase in GFP intensity of infected cells (parasite development): significantly less pronounced
[3]; 2 hours post-infection
  invasion rate (GFP positive cells): equally invaded
[4]; Hepa1-6, 25 μM, 24 hours after infection
  EEF size (area): significantly smaller
[4]; increasing doses of genistein, 24 hours after sporozoite addition
  Hepa1-6 cell infection (total number of EEFs): significantly inhibits Hepa1-6 cell infection in a dose-dependent manner
P. yoelii sporozoites
  parasite load in the liver: reduced infection
[5]
  sporozoite-induced Met phosphorylation: inhibited by genistein
Huh7 cells
  proportion of cell death: constant proportion of cell death
[6]; HepG2, added at sporozoite addition and washed at various time-points
  infection, drug removed at different times after infection: reduced infection when it was present during the first 4 hours of infection
[6]; HepG2, added prior to infection or up to 6 hours after sporozoite addition
  infection, drug added at different times after sporozoite addition: significantly reduced infection to approximately the same extent
[6]; HepG2 cells, 24 hours after infection
  reduction in infection: 74±8%
HepG2 cells
  number of adherent cells: constant number of cells
[7]
  adverse effects: No obvious adverse effects
[8]; genistein supplemented diet
  genistein amounts in sera: ≤ 5 µM
[8]; single oral dose 200 mg/kg, 2 h after gavage, 200 mg/kg
  Genistein Concentration (μM): 7,07 μM and 15,00 μM and 13,25 μM and 7,23 μM
[8]; single oral dose 200 mg/kg, 6 h after gavage, 200 mg/kg
  Genistein Concentration (μM): 0,57 μM and 0,32 μM and 0,45 μM and 2,29 μM
[8]; supplemented diet 1000 ppm, 7–9 weeks old mice
  Genistein Concentration (μM): 3,32 μM and 1,99 μM and 1,35 μM and 2,26 μM and 3,02 μM and 1,34 μM and 3,14 μM and 3,75 μM and 0,20 μM and 1,11 μM and 0,84 μM and 1,37 μM and 0,68 μM and 1,16 μM and 1,42 μM
P. berghei ANKA; Huh-7, 24 h, read-out: IC50 (inhibition of infection), P. berghei ANKA infection of Huh7 cells
  IC50: ~20 µM
P. berghei sporozoites
  infection of primary mouse hepatocytes: reduced the infection of these cells
[9]
  development of parasitemia after iRBC infection: no significant difference
[10]; 25 days after infection
  survival: 56%
[10]; i.v. sporozoites
  appearance of blood parasitemia: significantly reduced
  mice protected from developing cerebral malaria: Fifty-six
[11]; Huh7 cells pre-treated 2 h with 25 μM, washed before sporozoite addition, 24 hours
  infection after pre-treatment of cells: small but significant reduction of infection
[11]; Huh7 cells, 25 μM, 24 hours after infection
  reduction in infection: 68±4%
